Measured values from patent US20220213102A1, “DIAZEPINONE DERIVATIVES AS CAPSID ASSEMBLY MODULATORS” (Janssen Sciences Ireland Unlimited Company, priority 2019, published 2022).

System: HBV
Test: HBV replication inhibition assay (BDNA assay) in HepG2.2.15 cells
Type: cell-based
Conditions: Hepatitis B virus, HepG2.2.15, 144 h, encapsidated HBV DNA in supernatant at day 6, BDNA QuantiGene assay
Protocol: HBV replication inhibition by the disclosed compounds were determined in cells infected or transfected with HBV or cells with stably integrated HBV, such as HepG2.2.15 cells (Sells et al. 1987). In this example, HepG2.2.15 cells were maintained in cell culture medium containing 10% fetal bovine serum (FBS), Geneticin, L-glutamine, penicillin and streptomycin. HepG2.2.15 cells were seeded in 96-well plates at a density of 40,000 cells/well and were treated with serially diluted compounds at a final DMSO concentration of 0.5% either alone or in combination by adding drugs in a checker box format. Cells were incubated with compounds for three days, after which medium was removed and fresh medium containing compounds was added to cells and incubated for another three days. At day 6, supernatant was removed and treated with DNase at 37° C. for 60 minutes, followed by enzyme inactivation at 75° C. for 15 minutes. Encapsidated HBV DNA was released from the virions and covalently linked HBV polymerase by incubating in lysis buffer (Affymetrix QS0010) containing 2.5 μg proteinase K at 50° C. for 40 minutes. HBV DNA was denatured by addition of 0.2 M NaOH and detected using a branched DNA (BDNA) QuantiGene assay kit according to manufacturer recommendation (Affymetrix). HBV DNA levels were also quantified using qPCR, based on amplification of encapsidated HBV DNA extraction with QuickExtraction Solution (Epicentre Biotechnologies) and amplification of HBV DNA using HBV specific PCR probes that can hybridize to HBV DNA and a fluorescently labeled probe for quantitation. In addition, cell viability of HepG2.2.15 cells incubated with test compounds alone or in combination was determined by using CellTitre-Glo reagent according to the manufacturer protocol (Promega). The mean background signal from wells containing only culture medium was subtracted from all other samples, and percent inhibition at each compound concentration was calculated by normalizing to signals from HepG2.2.15 cells treated with 0.5% DMSO using equation E1.
% inhibition=(DMSOave−Xi)/DMSOave×100% E1:
where DMSOave is the mean signal calculated from the wells that were treated with DMSO control (0% inhibition control) and Xi is the signal measured from the individual wells. EC50 values, effective concentrations that achieved 50% inhibitory effect, were determined by non-linear fitting using Graphpad Prism software (San Diego, Calif.) and equation E2.
Y=Ymin+(Ymax−Ymin)/(1+10(Log EC50−X)×HillSlope) E2:
where Y represents percent inhibition values and X represents the logarithm of compound concentrations.
Selected disclosed compounds were assayed in the HBV replication assay (BDNA assay), as described above, and a representative group of these active compounds is shown in Table 3.

SMILES	EC50 [nM]
CN1CC(c2nc[nH]n2)Cn2nc3c(c2C1=O)CN(C(=O)Nc1ccc(F)c(C#N)c1)CC3 (stereo not shown) [Example 1, N-(3-Cyano-4-fluorophenyl)-10-methyl-11-oxo-8-(1H-1,2,4-triazol-3-yl)-3,4,8,9,10,11-hexahydro-1H-pyrido[4′,3′:3,4]pyrazolo[1,5-a][1,4]diazepine-2(7H)-carboxamide]	> 4000
CN1CC(c2ncno2)Cn2nc3c(c2C1=O)CN(C(=O)Nc1ccc(F)c(C#N)c1)CC3 (stereo not shown) [Example 2, N-(3-Cyano-4-fluorophenyl)-10-methyl-8-(1,2,4-oxadiazol-5-yl)-11-oxo-3,4,8,9,10,11-hexahydro-1H-pyrido[4′,3′:3,4]pyrazolo[1,5-a][1,4]diazepine-2(7H)-carboxamide]	> 4000
CN1CC(c2nnn[nH]2)Cn2nc3c(c2C1=O)CN(C(=O)Nc1ccc(F)c(C#N)c1)CC3 (stereo not shown) [Example 3, N-(3-Cyano-4-fluorophenyl)-10-methyl-11-oxo-8-(1H-tetrazol-5-yl)-3,4,8,9,10,11-hexahydro-1H-pyrido[4′,3′:3,4]pyrazolo[1,5-a][1,4]diazepine-2(7H)-carboxamide]	> 4000
CN1CC(c2cc[nH]n2)Cn2nc3c(c2C1=O)CN(C(=O)Nc1ccc(F)c(Cl)c1)CC3 (stereo not shown) [Example 4, N-(3-Chloro-4-fluorophenyl)-10-methyl-11-oxo-8-(1H-pyrazol-3-yl)-3,4,8,9,10,11-hexahydro-1H-pyrido[4′,3′:3,4]pyrazolo[1,5-a][1,4]diazepine-2(7H)-carboxamide]	93
CN1CC(c2ccnn2C)Cn2nc3c(c2C1=O)CN(C(=O)Nc1ccc(F)c(C#N)c1)CC3 (stereo not shown) [Example 6, N-(3-Cyano-4-fluorophenyl)-10-methyl-8-(1-methyl-1H-pyrazol-5-yl)-11-oxo-3,4,8,9,10,11-hexahydro-1H-pyrido[4′,3′:3,4]pyrazolo[1,5-a][1,4]diazepine-2(7H)-carboxamide]	83
CN1CC(O)(c2ccccc2)Cn2nc3c(c2C1=O)CN(C(=O)Nc1ccc(F)c(C#N)c1)CC3 (stereo not shown) [Example 15, N-(3-Cyano-4-fluoro-phenyl)-11-hydroxy-13-methyl-14-oxo-11-phenyl-4,8,9,13-tetrazatricyclo[7.5.0.0^2,7]tetradeca-1,7-diene-4-carboxamide]	140
CN1CC(F)(c2ccccc2)Cn2nc3c(c2C1=O)CN(C(=O)Nc1ccc(F)c(C#N)c1)CC3 (stereo not shown) [Example 16, N-(3-Cyano-4-fluorophenyl)-8-fluoro-10-methyl-11-oxo-8-phenyl-3,4,8,9,10,11-hexahydro-1H-pyrido[4′,3′:3,4]pyrazolo[1,5-a][1,4]diazepine-2(7H)-carboxamide]	176
